Source: patent US20090203577A1 (EXELIXIS, INC., priority 2005, published 2009)
≈ marks a conversion by molar mass, not a printed value.

Experiments:
[1] = biological target: T1, human farnesoid X receptor (Homo sapiens, UniProt Q96RI1); assay: FXR in vitro assays (farnesoid X receptor/ECREx7 co-transfection assay, TR-FRET assay), Table I; assay type: cell-based; conditions: for EC50: agonist activity, one or more of the in vitro assays, read-out: EC50; for Emax: read-out: % Efficacy
T1 construct: CMX-farnesoid X receptor (full length human farnesoid X receptor); expressed in transfected cells; host or cells: CV-1 African Green Monkey Kidney cells
T1 sequence (Q96RI1 1-472 isoform Q96RI1-2): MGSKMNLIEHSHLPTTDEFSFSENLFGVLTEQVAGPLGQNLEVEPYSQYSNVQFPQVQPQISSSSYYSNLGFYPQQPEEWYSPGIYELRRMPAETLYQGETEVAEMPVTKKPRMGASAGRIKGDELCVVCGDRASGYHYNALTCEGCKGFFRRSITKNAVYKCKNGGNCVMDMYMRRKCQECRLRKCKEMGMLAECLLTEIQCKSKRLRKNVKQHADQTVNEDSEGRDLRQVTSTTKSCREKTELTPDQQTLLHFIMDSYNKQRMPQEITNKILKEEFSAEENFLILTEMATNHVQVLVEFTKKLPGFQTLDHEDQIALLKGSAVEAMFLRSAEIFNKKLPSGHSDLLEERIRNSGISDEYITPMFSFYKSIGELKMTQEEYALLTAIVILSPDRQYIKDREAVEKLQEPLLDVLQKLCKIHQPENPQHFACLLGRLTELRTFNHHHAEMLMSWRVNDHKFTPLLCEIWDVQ
T1 sequence (P19793 1-462 partner): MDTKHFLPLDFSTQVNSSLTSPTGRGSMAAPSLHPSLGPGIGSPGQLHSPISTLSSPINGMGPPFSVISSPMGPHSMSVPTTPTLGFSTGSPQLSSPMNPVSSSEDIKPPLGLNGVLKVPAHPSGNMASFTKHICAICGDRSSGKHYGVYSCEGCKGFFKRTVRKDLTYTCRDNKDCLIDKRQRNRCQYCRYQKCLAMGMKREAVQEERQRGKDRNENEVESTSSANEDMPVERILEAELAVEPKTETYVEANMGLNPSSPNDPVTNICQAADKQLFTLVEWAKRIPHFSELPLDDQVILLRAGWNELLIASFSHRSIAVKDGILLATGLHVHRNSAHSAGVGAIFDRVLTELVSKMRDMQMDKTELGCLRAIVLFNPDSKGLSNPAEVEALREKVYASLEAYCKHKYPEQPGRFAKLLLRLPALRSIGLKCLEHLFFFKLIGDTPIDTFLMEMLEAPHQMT
Method in brief: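 CV-1 monkey kidney cells transfected for an FXR/ECREx7 luciferase co-transfection reporter; luciferase read 18-20 h later in lysates. 8-point dose-response at ½-log spacing, 4 wells per point; EC50/IC50 from four-parameter Hill fit, averaged over at least 3 independent experiments.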

physchem = conditions: pH 7.4, aqueous buffer, kinetic from dmso stock
Experimental: The kinetic solubility of test compounds in buffer was evaluated using a 96 well filtration plate format. A 500 μM assay solution in PBS, pH7.4 (or other assay buffer, as needed) was generated form a DMSO stock solution (up to 10 mM). Samples were transferred to a 96 Millipore MultiScreen HTS 96-well Filter plate (Cat# MSSLBPC10) mixed by shaking for 1.5 hours and processed by filtration prior to quantitation by HPLC-UV. Amiodarone and testosterone were used as reference controls.

| SMILES | EC50 [1] | Emax [1] | solubility kinetic at 1.5 h (physchem) |
| --- | --- | --- | --- |
| CC(C)OC(=O)C1=CN(C(=O)N2CCC(N3CCN(C)CC3)CC2)CC(C)(C)c2c1[nH]c1ccccc21 [Example 41, 1-methylethyl 1,1-dimethyl-3{[4-(4-methylpiperazin-1-yl)piperidin-1-yl]carbonyl}-1,2,3,6-tetrahydroazepino [4,5-b]indole-5-carboxylate] | 1 to 10 µM | 40 to 60% | > 10 µM |
| CC(C)OC(=O)C1=CN(C(=O)N2C[C@@H]3C[C@H]2CN3C)CC(C)(C)c2c1[nH]c1ccccc21 [Example 42, 1-methylethyl 1,1-dimethyl-3-{[(1S,4S)-5-methyl-2,5-diazabicyclo[2.2.1]hept-2-yl]carbonyl}-1,2,3,6-tetrahydroazepino [4,5-b]indole-5-carboxylate] | 0.1 to 1 µM | > 100% | > 10 µM |
| CC(C)OC(=O)C1=CN(C(=O)N2CCCN(C)CC2)CC(C)(C)c2c1[nH]c1ccccc21 [Example 43, 1-methyl 1,1-dimethyl-3-[(4-methyl-1,4-diazepan-1-yl)carbonyl]-1,2,3,6-tetrahydroazepino[4,5-b]indole-5-carboxylate] | 0.1 to 1 µM | > 100% | > 10 µM |
| CC(C)OC(=O)C1=CN(C(=O)NC2CCCCC2)CC(C)(C)c2c1[nH]c1ccccc21 [Example 45, 1-methylethyl 3-[(cyclohexylamino)carbonyl]-1,1-dimethyl-1,2,3,6-tetrahydroazepino[4,5-b]indole-5-carboxylate] | 0.01 to 0.1 µM | > 100% | 1 to 10 µM (≈ 0.424 to 4.24 µg/mL) |
| CC(C)OC(=O)C1=CN(C(=O)N2CCOCC2)CC(C)(C)c2c1[nH]c1ccccc21 [Example 47, 1-methylethyl 1,1-dimethyl-3-(morpholin-4-ylcarbonyl)-1,2,3,6-tetrahydrazepino[4,5-b]indole-5-carboxylate] | 0.01 to 0.1 µM | > 100% | > 10 µM |
| CC(C)OC(=O)C1=CN(C(=O)N2CCCC(CN(C)C)C2)CC(C)(C)c2c1[nH]c1ccccc21 (stereo not drawn) [Example 48, 1-methylethyl 3-({3-[(dimethylamino)methyl]piperidin-1-yl}carbonyl)-1,1-dimethyl-1,2,3,6-tetrahydroazepino[4,5-b]indole-5-carboxylate] | 1 to 10 µM | > 100% | > 10 µM |
| CC(C)OC(=O)C1=CN(C(=O)N2CCC[C@@H](CN(C)C)C2)CC(C)(C)c2c1[nH]c1ccccc21 [Example 50, 1-methylethyl 3-({(3S)-3-[(dimethylamino)methyl]piperidin-1-yl}carbonyl)-1,1-dimethyl-1,2,3,6-tetrahydroazepino[4,5-b]indole-5-carboxylate] | 1 to 10 µM | 60 to 80% | > 10 µM |
| CC(C)OC(=O)C1=CN(C(=O)N2CCC[C@H](CN(C)C)C2)CC(C)(C)c2c1[nH]c1ccccc21 [Example 51, 1-methylethyl 3-({(3R)-3-[(dimethylamino)methyl]piperidin-1-yl}carbonyl)-1,1-dimethyl-1,2,3,6-tetrahydroazepino[4,5-b]indole-5-carboxylate] | 1 to 10 µM | > 100% | > 10 µM |
| CC(C)OC(=O)C1=CN(C(=O)N2CCCC(CN3CCOCC3)C2)CC(C)(C)c2c1[nH]c1ccccc21 (stereo not drawn) [Example 53, 1-methylethyl 1,1-dimethyl-3{[3-(morpholin-4-ylmethyl)piperidin-1-yl]carbonyl}-1,2,3,6-tetrahydroazepino [4,5-b]indole-5-carboxylate] | 0.1 to 1 µM | > 100% | > 10 µM |
| CC(C)OC(=O)C1=CN(C(=O)N[C@H]2CCCNC2)CC(C)(C)c2c1[nH]c1ccccc21 [Example 54, 1-mcthylethyl 1,1-dimethyl-3-{[(3S)-piperidin-3-ylamino]carbonyl}-1,2,3,6-tetrahydroazepino[4,5-b]indole-5-carboxylate] | 1 to 10 µM | 40 to 60% | > 10 µM |
